The values below come from patent US10131653B2, “Heterocyclic compound” (TAKEDA PHARMACEUTICAL COMPANY LIMITED, priority 2015, dated 2018).

SMILES strings stand for the structures. Where a name gives a salt, the structure may show the parent alone.

One assay concerns the target T1, human OX1 receptor (Homo sapiens, UniProt O43613).
T1 construct: expressed in transfected cells; host or cells: CHO cells
T1 sequence (O43613 1-425): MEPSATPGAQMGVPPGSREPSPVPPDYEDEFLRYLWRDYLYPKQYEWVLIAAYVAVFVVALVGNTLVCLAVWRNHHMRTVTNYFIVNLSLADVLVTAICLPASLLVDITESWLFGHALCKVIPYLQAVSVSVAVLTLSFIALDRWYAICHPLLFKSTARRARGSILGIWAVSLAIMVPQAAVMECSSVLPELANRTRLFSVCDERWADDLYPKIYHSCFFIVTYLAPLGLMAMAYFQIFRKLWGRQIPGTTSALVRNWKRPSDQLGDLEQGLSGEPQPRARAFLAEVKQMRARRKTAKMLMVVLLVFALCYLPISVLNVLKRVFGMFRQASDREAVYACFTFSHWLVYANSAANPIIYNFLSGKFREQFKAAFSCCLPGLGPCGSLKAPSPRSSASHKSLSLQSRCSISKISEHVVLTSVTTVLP
The experiment in a line: Measurement of orexin receptor antagonistic activity (calcium fluorescence, FLIPRtetra). The assay is classed as cell-based. As to conditions: CHO, 10 μM test compound; CHO cells expressing human OX1 receptor; OX-A 1 nM; read-out: Human Orexin1 receptor inhibition (at 10 μM). The gist of the method: (§1)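 CHO cells expressing human OX1 or OX2 receptor, cultured one day. Compound in HBSS/20 mM HEPES/0.1% BSA added, then orexin-A at 1 nM final (OX1) or 0.3 nM final (OX2); calcium fluorescence by FLIPRtetra every 1 s for 2 min.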

A further assay has as its target T2, human OX2 receptor (Homo sapiens, UniProt O43614).
T2 construct: expressed in transfected cells; host or cells: CHO cells
T2 sequence (O43614 1-444): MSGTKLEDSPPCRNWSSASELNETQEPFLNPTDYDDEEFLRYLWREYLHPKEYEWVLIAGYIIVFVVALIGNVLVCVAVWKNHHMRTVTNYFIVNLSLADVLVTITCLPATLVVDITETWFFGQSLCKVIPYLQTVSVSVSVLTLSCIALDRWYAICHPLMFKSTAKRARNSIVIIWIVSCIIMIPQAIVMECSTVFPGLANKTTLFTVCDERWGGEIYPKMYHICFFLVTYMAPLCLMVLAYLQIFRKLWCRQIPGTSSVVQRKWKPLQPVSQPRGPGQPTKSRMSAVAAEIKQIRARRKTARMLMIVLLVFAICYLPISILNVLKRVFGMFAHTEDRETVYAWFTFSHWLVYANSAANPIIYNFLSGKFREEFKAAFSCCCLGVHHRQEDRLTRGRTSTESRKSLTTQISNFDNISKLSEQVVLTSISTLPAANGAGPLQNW
Described as above. The assay is classed as cell-based. As to conditions: CHO, 10 μM test compound; CHO cells expressing human OX2 receptor; OX-A 0.3 nM; read-out: Human Orexin2 receptor inhibition (at 10 μM). An outline of the steps:
as §1

The term inhibition denotes the relative decrease from the control value, in per cent. Consider `Cc1cc(N2CCN(C(=O)c3cc(F)c(F)cc3-n3nccn3)C[C@H](C)O2)nc(C)n1` [Example 106, (4,5-difluoro-2-(2H-1,2,3-triazol-2-yl)phenyl)((7S)-2-(2,6-dimethylpyrimidin-4-yl)-7-methyl-1,2,5-oxadiazepan-5-yl)methanone], for which the values for the inhibition at 10 µM at human OX1 receptor and on human OX2 receptor were 38% and 99%, respectively.
Taken in the same sequence, the figures for `Cc1nc(N2CCN(C(=O)c3cc(F)c(F)cc3-n3nccn3)C[C@H](C)O2)cc(C(F)(F)F)n1` [Example 107, (4,5-difluoro-2-(2H-1,2,3-triazol-2-yl)phenyl)((7S)-7-methyl-2-(2-methyl-6-(trifluoromethyl)pyrimidin-4-yl)-1,2,5-oxadiazepan-5-yl)methanone] were 37% and 94%.
Turning to `Cc1cc(N2CCN(C(=O)c3cc(F)c(F)cc3-n3nccn3)C[C@H](C)O2)nc(C(F)(F)F)n1` [Example 108, (4,5-difluoro-2-(2H-1,2,3-triazol-2-yl)phenyl)((7S)-7-methyl-2-(6-methyl-2-(trifluoromethyl)pyrimidin-4-yl)-1,2,5-oxadiazepan-5-yl)methanone], the inhibition at 10 µM on human OX1 receptor amounted to 100%; at human OX2 receptor it was 101%.
As for `Cc1cc(N2CCN(C(=O)c3ccccc3-c3ncccn3)C[C@H](C)O2)nc(C)n1` [Example 109, ((7S)-2-(2,6-dimethylpyrimidin-4-yl)-7-methyl-1,2,5-oxadiazepan-5-yl)(2-(pyrimidin-2-yl)phenyl)methanone], the inhibition at 10 µM came to 85% at human OX1 receptor and 101% at human OX2 receptor.
Taken in the same sequence, the figures for `Cc1cc(N2CCN(C(=O)c3ccccc3-c3nc(C)cs3)C[C@H](C)O2)nc(C)n1` [Example 110, ((7S)-2-(2,6-dimethylpyrimidin-4-yl)-7-methyl-1,2,5-oxadiazepan-5-yl)(2-(4-methyl-1,3-thiazol-2-yl)phenyl)methanone] were 79% and 95%.
For `Cc1nc(N2CCN(C(=O)c3ccccc3-c3nc(C)no3)C[C@H](C)O2)cc(C(F)(F)F)n1` [Example 111, ((7S)-7-methyl-2-(2-methyl-6-(trifluoromethyl)pyrimidin-4-yl)-1,2,5-oxadiazepan-5-yl)(2-(3-methyl-1,2,4-oxadiazol-5-yl)phenyl)methanone] the same measures were 9% and 100%.
For `CCC1CN(C(=O)c2ccccc2-n2nccn2)CCN(c2cc(C)nc(C)n2)O1` (centres unmarked) [Example 112, (2-(2,6-dimethylpyrimidin-4-yl)-7-ethyl-1,2,5-oxadiazepan-5-yl)(2-(2H-1,2,3-triazol-2-yl)phenyl)methanone] the same measures were 90% and 101%.
In the case of `COCC1CN(C(=O)c2ccccc2-n2nccn2)CCN(c2cc(C)nc(C)n2)O1` (centres unmarked) [Example 113, (2-(2,6-dimethylpyrimidin-4-yl)-7-(methoxymethyl)-1,2,5-oxadiazepan-5-yl)(2-(2H-1,2,3-triazol-2-yl)phenyl)methanone], the inhibition at 10 µM is 16% at human OX1 receptor and 102% at human OX2 receptor.
As for `Cc1ccc(-n2nccn2)c(C(=O)N2CCN(c3nc(C)cc(C)n3)OC[C@H]2C)c1` [Example 114, ((6R)-2-(4,6-dimethylpyrimidin-2-yl)-6-methyl-1,2,5-oxadiazepan-5-yl) (5-methyl-2-(2H-1,2,3-triazol-2-yl)phenyl)methanone], the inhibition at 10 µM at human OX1 receptor amounted to 69%; at human OX2 receptor it was 96%.
For `Cc1ccc(-n2nccn2)c(C(=O)N2CCN(c3nc(C)cc(C#N)n3)OC[C@H]2C)c1` [Example 115, 6-methyl-2-((6R)-6-methyl-5-(5-methyl-2-(2H-1,2,3-triazol-2-yl)benzoyl)-1,2,5-oxadiazepan-2-yl)pyrimidine-4-carbonitrile], the inhibition at 10 µM was determined as 103% on human OX1 receptor and 100% on human OX2 receptor.
On to `Cc1ccc(-n2nccn2)c(C(=O)N2CCN(c3ncc4sccc4n3)OC[C@H]2C)c1` [Example 116, ((6R)-6-methyl-2-(thieno[3,2-d]pyrimidin-2-yl)-1,2,5-oxadiazepan-5-yl) (5-methyl-2-(2H-1,2,3-triazol-2-yl)phenyl)methanone], for which the inhibition at 10 µM was 101% at human OX1 receptor and 100% on human OX2 receptor.
For the compound `COc1nc(N2CCN(C(=O)c3cc(C)ccc3-n3nccn3)[C@H](C)CO2)ncc1F` [Example 117, ((6R)-2-(5-fluoro-4-methoxypyrimidin-2-yl)-6-methyl-1,2,5-oxadiazepan-5-yl)(5-methyl-2-(2H-1,2,3-triazol-2-yl)phenyl)methanone hydrochloride], the results for the inhibition at 10 µM on human OX1 receptor and at human OX2 receptor were 77% and 100%, respectively.
For `Cc1ccc(-n2nccn2)c(C(=O)N2CCN(c3nc4cc(Cl)ccc4o3)OC[C@H]2C)c1` [Example 118, ((6R)-2-(5-chloro-1,3-benzoxazol-2-yl)-6-methyl-1,2,5-oxadiazepan-5-yl)(5-methyl-2-(2H-1,2,3-triazol-2-yl)phenyl)methanone] the same measures were 101% and 102%.
Taken in the same sequence, the figures for `Cc1ccc(-n2nccn2)c(C(=O)N2CCN(c3ccc(F)cn3)OC[C@H]2C)c1` [Example 119, ((6R)-2-(5-fluoropyridin-2-yl)-6-methyl-1,2,5-oxadiazepan-5-yl)(5-methyl-2-(2H-1,2,3-triazol-2-yl)phenyl)methanone] were 48% and 92%.
Taken in the same sequence, the figures for `COc1cccc(N2CCN(C(=O)c3cc(C)ccc3-n3nccn3)[C@H](C)CO2)c1` [Example 120, ((6R)-2-(3-methoxyphenyl)-6-methyl-1,2,5-oxadiazepan-5-yl) (5-methyl-2-(2H-1,2,3-triazol-2-yl)phenyl)methanone] were 83% and 100%.
Take `Cc1ccc(-n2nccn2)c(C(=O)N2CCN(c3ccc(Cl)cn3)OC[C@H]2C)c1` [Example 121, ((6R)-2-(5-chloropyridin-2-yl)-6-methyl-1,2,5-oxadiazepan-5-yl) (5-methyl-2-(2H-1,2,3-triazol-2-yl)phenyl)methanone]: the inhibition at 10 µM on human OX1 receptor worked out at 92%; at human OX2 receptor, 94%.
Taken in the same sequence, the figures for `Cc1ccc(-n2nccn2)c(C(=O)N2CCN(c3ncccc3Cl)OC[C@H]2C)c1` [Example 122, ((6R)-2-(3-chloropyridin-2-yl)-6-methyl-1,2,5-oxadiazepan-5-yl) (5-methyl-2-(2H-1,2,3-triazol-2-yl)phenyl)methanone] were 11% and 69%.
Taken in the same sequence, the figures for `COc1cccnc1N1CCN(C(=O)c2cc(C)ccc2-n2nccn2)[C@H](C)CO1` [Example 123, ((6R)-2-(3-methoxypyridin-2-yl)-6-methyl-1,2,5-oxadiazepan-5-yl) (5-methyl-2-(2H-1,2,3-triazol-2-yl)phenyl)methanone] were 23% and 74%.
As for `Cc1ccc(-n2nccn2)c(C(=O)N2CCN(c3cccc(C)n3)OC[C@H]2C)c1` [Example 124, ((6R)-6-methyl-2-(6-methylpyridin-2-yl)-1,2,5-oxadiazepan-5-yl) (5-methyl-2-(2H-1,2,3-triazol-2-yl)phenyl)methanone], the inhibition at 10 µM on human OX1 receptor came out at 85%; at human OX2 receptor it was 101%.
`Cc1ccnc(N2CCN(C(=O)c3cc(C)ccc3-n3nccn3)[C@H](C)CO2)c1` [Example 125, ((6R)-6-methyl-2-(4-methylpyridin-2-yl)-1,2,5-oxadiazepan-5-yl) (5-methyl-2-(2H-1,2,3-triazol-2-yl)phenyl)methanone]: the inhibition at 10 µM at human OX1 receptor is 68%; on human OX2 receptor it was 98%.
For `COc1cccc(N2CCN(C(=O)c3cc(C)ccc3-n3nccn3)[C@H](C)CO2)n1` [Example 126, ((6R)-2-(6-methoxypyridin-2-yl)-6-methyl-1,2,5-oxadiazepan-5-yl) (5-methyl-2-(2H-1,2,3-triazol-2-yl)phenyl)methanone] the same measures were 96% and 97%.
Turning to `Cc1ccc(-n2nccn2)c(C(=O)N2CCN(c3cc(C(F)(F)F)ccn3)OC[C@H]2C)c1` [Example 127, (5-methyl-2-(2H-1,2,3-triazol-2-yl)phenyl) ((6R)-6-methyl-2-(4-(trifluoromethyl)pyridin-2-yl)-1,2,5-oxadiazepan-5-yl)methanone], the inhibition at 10 µM at human OX1 receptor worked out at 66%; at human OX2 receptor, 86%.
